# Measurements: the supplement of paper PMC8988213
# Counter-ions that a name gives are not always drawn.
# Columns and labels:
# [1] = system: ID211 patient-derived PDAC 2D line (post-FOLFIRINOX); test: normalised area under dose-response curve (viability relative to DMSO, 7 doses up to 10 µM) (fraction (AUC)); higher = less sensitive (more viability retained); details: 72 h; top dose: 10 µM
# Procedure, shortened: (§1)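 Patient-derived 2D PDAC cells grown out from organoids were seeded robotically at 1,500–3,000 cells/well in 96-well plates and incubated overnight at 37°C, 5% CO2. SelleckChem library compounds were added at seven concentrations (3-fold dilution series, highest 10 µM) for 72 h. CellTiter-Glo luminescence was read after 10 min. Viability was normalised to the DMSO control, and area under the dose-response curve was derived with the GRmetrics R package.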
# [2] = system: ID188 patient-derived PDAC 2D line (pre-FOLFIRINOX); test: as above; details: 72 h; top dose: 10 µM
# Procedure, shortened: as §1
SMILES,normalised area under dose-response curve [1],normalised area under dose-response curve [2]
Cc1cc2c(C(N)=O)cccc2n1-c1nc2c(c(NCc3ccccc3)n1)COCC2 [CB-5083],0.643,1.01
CCN1C(=O)CNc2ncc(-c3ccc(-c4nc[nH]n4)nc3C)nc21 [CC-115],0.7,0.718
COc1ccc(N2C(=O)/C(=C\c3ccc([N+](=O)[O-])s3)SC2=S)cc1 [CCF642],0.874,0.746
CCS(=O)(=O)N1CCC([C@@H](C)n2c(C)c(C(=O)NCc3c(OC)cc(C)[nH]c3=O)c3ccccc32)CC1 [CPI-169],0.874,0.924
Cc1sc2c(c1C)C(c1ccc(Cl)cc1)=N[C@@H](CC(N)=O)c1nnc(C)n1-2 [CPI-203],0.597,0.877
CC(C)c1c(-c2ccccc2)nc2c(C#N)c[nH]n2c1=O [CPI-455 HCl],0.898,0.972
O=C(O)CCCCC(CCSCc1ccccc1)SCc1ccccc1 (configuration not stated) [CPI-613],0.902,0.897
C#Cc1cccc(Nc2ncnc3cc(OC)c(OCCCCCCC(=O)NO)cc23)c1 [CUDC-101],0.765,0.827
O=C(O)c1cc(I)ccc1NC(=O)[C@H](Cc1ccccc1)NCc1ccccc1 [CW069],0.842,0.937
COc1cc2nccc(Oc3ccc(NC(=O)C4(C(=O)Nc5ccc(F)cc5)CC4)cc3)c2cc1OC [Cabozantinib malate (XL184)],0.78,0.585
CC(C)C[C@H](NC(=O)[C@H](CCc1ccccc1)NC(=O)CN1CCOCC1)C(=O)N[C@@H](Cc1ccccc1)C(=O)N[C@@H](CC(C)C)C(=O)[C@@]1(C)CO1 [Carfilzomib (PR-171)],0.0368,0.126
COc1cc2c(Oc3ccc4[nH]c(C)cc4c3F)ncnc2cc1OCCCN1CCCC1 [Cediranib (AZD2171)],0.83,0.927
Cc1ccc(-c2cc(C(F)(F)F)nn2-c2ccc(S(N)(=O)=O)cc2)cc1 [Celecoxib],0.892,0.935
Cc1cc(Nc2ncc(Cl)c(Nc3ccccc3S(=O)(=O)C(C)C)n2)c(OC(C)C)cc1C1CCNCC1 [Ceritinib (LDK378)],0.685,0.823
CN1C(=O)[C@@]23C[C@]4([C@]56C[C@@]78SS[C@@](CO)(C(=O)N7[C@H]5Nc5ccccc56)N(C)C8=O)c5ccccc5N[C@@H]4N2C(=O)[C@]1(CO)SS3 [Chaetocin],0.0212,0.192
NC(=O)c1ccc2nc(-c3ccc(Oc4ccc(Cl)cc4)cc3)[nH]c2c1 [Chk2 Inhibitor II (BML-277)],0.865,0.967
N.N.[Cl][Pt][Cl] [Cisplatin],0.86,0.95
"O=C(c1ccc(F)c(F)c1Nc1ccc(I)cc1F)N1CC(O)([C@@H]2CCCCN2)C1 [Cobimetinib (GDC-0973, RG7420)]",0.26,0.639
COc1cc2c(c(OC)c1OC)-c1ccc(OC)c(=O)cc1[C@@H](NC(C)=O)CC2 [Colchicine],0.589,0.562
O=P1(N(CCCl)CCCl)NCCCO1 (configuration not stated) [Cyclophosphamide Monohydrate],0.899,0.927
Nc1cccc(S(=O)(=O)N2CCCN(S(=O)(=O)c3ccc4c(c3)OCCO4)CC2)c1 [DASA-58],0.808,0.918
CCN1CCN(Cc2ccc(C(=O)Nc3ccc(C)c(Oc4ccc5c(c4)CC(=O)N5)c3)cc2C(F)(F)F)CC1 [DDR1-IN-1],0.908,0.934
CCOc1ccc(Cc2cc([C@@H]3O[C@H](CO)[C@@H](O)[C@H](O)[C@H]3O)ccc2Cl)cc1 [Dapagliflozin],0.913,0.943
Cc1nc(Nc2ncc(C(=O)Nc3c(C)cccc3Cl)s2)cc(N2CCN(CCO)CC2)n1 [Dasatinib hydrochloride],0.468,0.377
Nc1ncn([C@H]2C[C@H](O)[C@@H](CO)O2)c(=O)n1 [Decitabine],0.82,0.909
CCC[C@H](NC(=O)/C(C#N)=C/c1cccc(Br)n1)c1ccccc1 [Degrasyn (WP1130)],0.82,0.869

SMILES,normalised area under dose-response curve [1],normalised area under dose-response curve [2]
COc1cc2c(cc1OC)[C@@H]1C(=O)c3ccc4c(c3O[C@@H]1CO2)C=CC(C)(C)O4 [Deguelin],0.75,0.886
CN1CCN(c2ccc3nc(-c4c(N)c5c(F)cccc5[nH]c4=O)[nH]c3c2)CC1 [Dovitinib (TKI258) Lactate],0.904,1.01
COc1cccc2c1C(=O)c1c(O)c3c(c(O)c1C2=O)CC(O)(C(=O)CO)CC3OC1CC(N)C(O)C(C)O1 (configuration not stated) [Doxorubicin (Adriamycin) HCl],0.584,0.672
Cc1cc(Cl)ccc1OCCCC(=O)NO [Droxinostat],0.936,0.946
CS(=O)(=O)c1ccc(-c2cnc(NCc3ccco3)n3cnnc23)cc1 [EED226],0.846,0.955
CN(NC(=O)CC(=O)NN(C)C(=S)c1ccccc1)C(=S)c1ccccc1 [Elesclomol (STA-4783)],0.0189,0.179
NC(=O)/C(=C/n1cnc(-c2cc(C(F)(F)F)cc(C(F)(F)F)c2)n1)c1cncnc1 [Eltanexor (KPT-8602)],0.579,0.574
CC(C)(O)CNc1nc(Nc2ccnc(C(F)(F)F)c2)nc(-c2cccc(C(F)(F)F)n2)n1 [Enasidenib (AG-221)],0.875,0.97
Nc1ccccc1NC(=O)c1ccc(CNC(=O)OCc2cccnc2)cc1 [Entinostat (MS-275)],0.73,0.835
c1cn2cc(-c3ccc4cn[nH]c4c3)nc(Nc3ccc(N4CCOCC4)cc3)c2n1 [Entospletinib (GS-9973)],0.792,0.891
CN1CCN(c2ccc(C(=O)Nc3n[nH]c4ccc(Cc5cc(F)cc(F)c5)cc34)c(NC3CCOCC3)c2)CC1 [Entrectinib (RXDX-101)],0.706,0.813
CCOc1ccccc1-n1c(C(C)N2CCN(C(=O)COc3ccc(Cl)cc3)CC2)nc2ccccc2c1=O (configuration not stated) [Erastin],0.813,0.856
C#Cc1cccc(Nc2ncnc3cc(OCCOC)c(OCCOC)cc23)c1 [Erlotinib],0.7,0.902
COc1cc([C@@H]2c3cc4c(cc3[C@@H](O[C@@H]3O[C@@H]5CO[C@@H](C)O[C@H]5[C@H](O)[C@H]3O)[C@H]3COC(=O)[C@H]23)OCO4)cc(OC)c1O [Etoposide],0.853,0.946
Cc1cc([N+](=O)[O-])ccc1NS(=O)(=O)c1cc(Cl)ccc1Cl [FH535],0.922,0.91
CC1=C(C(=O)OC2CCCCC2)C(c2ccc([N+](=O)[O-])cc2)C2=C(CC(C)(C)CC2=O)N1 (configuration not stated) [FLI-06],0.792,0.936
"O=c1[nH]cc(F)c(=O)[nH]1 [Fluorouracil (5-Fluoracil, 5-FU)]",0.804,0.854
CC(C)n1c(/C=C/C(O)CC(O)CC(=O)O)c(-c2ccc(F)cc2)c2ccccc21 (configuration not stated) [Fluvastatin Sodium],0.807,0.87
CN[C@@H](C)C(=O)N[C@H](C(=O)N1CCC[C@H]1C(=O)Nc1snnc1-c1ccccc1)C1CCCCC1 [GDC-0152],0.849,0.667
Cn1nccc1Nc1nccc(-c2ccn([C@H](CO)c3ccc(Cl)c(F)c3)c(=O)c2)n1 [GDC-0994],0.677,0.824
N#CN=C(NCCCCCCOc1ccc(Cl)cc1)Nc1ccncc1 [GMX1778 (CHS828)],0.296,0.283
CC[C@H](C)n1cc(C)c2c(C(=O)NCc3c(C)cc(C)[nH]c3=O)cc(-c3ccc(N4CCNCC4)nc3)cc21 [GSK126],0.95,1.02
Cc1cc(C)c(CNC(=O)c2cc(-c3ccc(N4CCN(C)CC4)nc3)cc3c2c(C)cn3C(C)C)c(=O)[nH]1 [GSK503],0.891,0.992
CC(C)(C)S(=O)(=O)c1ccc2nccc(Nc3n[nH]c4ccc(F)cc34)c2c1 [GSK583],0.893,0.9
O=C(NC[C@H](O)CN1CCc2ccccc2C1)c1ccnc(NC2CCC2)c1 [GSK591],0.881,0.843
